In patent US9688684B2, “Substituted tetrazolo[1,5-a]pyrazines as ROR-gamma inhibitors” (Merck Patent GmbH, priority 2013, dated 2017):

Assays:
[1] = target: RORγ Ligand binding domain (RORγ-LBD, aa 238-497, NP_001001523) (Homo sapiens (Human), UniProt P51449); assay: ROR γ GAI4 Reporter Gene Assay (Mammalian one-hybrid, M1H) in 293T cells; assay type: cell-based
Description: ROR γ GAI4 Reporter Gene Assay
A Mammalian one-hybrid system is used to perform a cell-based functional transactivation assay for detecting RORγ activity modulators.
The Mammalian-1-Hybrid is derived from the Mammalian-2-Hybrid setup. Whereas in the latter, the binding partners are defined in their role as interaction, transactivation and DNA-binding components, the Mammalian-1-Hybrid makes use of the fact that all mammalian cell types express a set of Nuclear Receptors and their associated cofactors. […] A Gal4 minimal promoter driven luciferase construct (pFR-Luc from Stratagene, containing a synthetic promoter with five tandem repeats of the yeast GAL4 binding sites controlling expression of the Photinus pyralis luciferase gene) is used as reporter. The Gal4-DBD-NR-LBD fusion protein by itself cannot initiate transcription and is dependent on the presence of cofactors present in the cellular system used.
In order to rule out cytotoxic and unspecific transcriptional compound effects a transfection with a firefly luciferase driven by the constitutive CMV promoter is performed in parallel.
After transfection 18 μl complete MEM medium containing 3% charcoal-dextran treated FBS is added as well as 4 μl test compounds (DMSO stocks prediluted in OptiMem (Invitrogen)) followed by incubation for 16-24 h at 37° C., 5% CO2 and 90% rH.
Firefly luciferase activity is measured using the Promega ONE-Glo™ Luciferase Assay System.

[2] = target: human RORγ ligand binding domain (GST-hRORγ-LBD) (Homo sapiens (Human), UniProt P51449); assay: TR-FRET assay (biochemical cofactor interaction assay, GST-hRORγ-LBD / TRAP220 peptide)
human RORγ ligand binding domain (GST-hRORγ-LBD), sequence (P51449 269-508): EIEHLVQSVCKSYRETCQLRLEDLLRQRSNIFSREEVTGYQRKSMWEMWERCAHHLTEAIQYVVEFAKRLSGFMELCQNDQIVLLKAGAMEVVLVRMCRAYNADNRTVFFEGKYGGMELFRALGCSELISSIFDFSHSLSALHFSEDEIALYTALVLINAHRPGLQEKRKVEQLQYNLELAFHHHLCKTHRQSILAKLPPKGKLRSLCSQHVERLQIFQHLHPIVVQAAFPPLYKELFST

RORγ Ligand binding domain (RORγ-LBD, aa 238-497, NP_001001523), sequence (P51449 259-518): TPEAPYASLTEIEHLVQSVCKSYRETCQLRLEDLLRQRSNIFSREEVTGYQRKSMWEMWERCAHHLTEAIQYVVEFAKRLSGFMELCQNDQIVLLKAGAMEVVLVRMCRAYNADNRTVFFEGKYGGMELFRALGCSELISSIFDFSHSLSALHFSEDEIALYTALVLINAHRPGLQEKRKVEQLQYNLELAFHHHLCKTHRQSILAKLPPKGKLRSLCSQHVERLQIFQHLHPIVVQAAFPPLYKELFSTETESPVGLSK

Structure (SMILES) | IC50 [1] [nM] | IC50 [2] [nM]
Fc1cccc(CN2CCn3nnnc3C2c2cccc(F)c2)c1 (centres unmarked) [Compound 38, 7-(3-Fluoro-benzyl)-8-(3-fluoro-phenyl)-5,6,7,8-tetrahydro-tetrazolo[1,5-a]pyrazine] | 990 to 9900 | 990 to 9900
Fc1ccc(CN2CCn3nnnc3C2c2cccc(F)c2)cc1 (racemic) [Compound 91, 7-(4-Fluoro-benzyl)-8-(3-fluoro-phenyl)-5,6,7,8-tetrahydro-tetrazolo[1,5-a]pyrazine] | 10 to 990 | 990 to 9900
Cc1cccc(CN2CCn3nnnc3C2c2cccc(F)c2)c1 (centres unmarked) [Compound 116, 8-(3-Fluoro-phenyl)-7-(3-methyl-benzyl)-5,6,7,8-tetrahydro-tetrazolo[1,5-a]pyrazine] | 990 to 9900 | 990 to 9900
CC(C)c1nn(-c2ccccc2)cc1C1c2nnnn2CCN1Cc1cccc(F)c1F (centres unmarked) [Compound 63, 7-(2,3-Difluoro-benzyl)-8-(3-isopropyl-1-phenyl-1H-pyrazol-4-yl)-5,6,7,8-tetrahydro-tetrazolo[1,5-a]pyrazine] | 10 to 990 | 9900 to 40000
Fc1ccccc1C1c2nnnn2CCN1Cc1cccc(Br)c1 (centres unmarked) [Compound 119, 7-(3-Bromo-benzyl)-8-(2-fluoro-phenyl)-5,6,7,8-tetrahydro-tetrazolo[1,5-a]pyrazine] | 990 to 9900 | 990 to 9900
Cc1cccc(CN2CCn3nnnc3C2c2ccc(OC(C)C)cc2)c1 (centres unmarked) [Compound 99, 8-(4-Isopropoxy-phenyl)-7-(3-methyl-benzyl)-5,6,7,8-tetrahydro-tetrazolo[1,5-a]pyrazine] | 990 to 9900 | 10 to 990
Cc1cccc(CN2CCn3nnnc3C2c2ccc(F)cc2F)c1 (centres unmarked) [Compound 136, 8-(2,4-Difluoro-phenyl)-7-(3-methyl-benzyl)-5,6,7,8-tetrahydro-tetrazolo[1,5-a]pyrazine] | 9900 to 40000 | 990 to 9900
